Values quoted from earlier work as cited in patent EP3572069A1, “INCREASING SOLUBILITY AND BIOAVAILABILITY OF ENZALUTAMIDE” (Zentiva K.S., priority 2018, dated 2019).

Assays:
[1] = background statement, no test described
[2] = not told

Row | Structure (SMILES) | Solubility [1] | Permeability [2]
1 | CNC(=O)c1ccc(N2C(=S)N(c3ccc(C#N)c(C(F)(F)F)c3)C(=O)C2(C)C)cc1F [Amorphous form of enzalutamide, 4-(3-(4-cyano-3-(trifluoromethyl)phenyl)-5,5-dimethyl-4-oxo-2-thioxo-1-imidazolidinyl)-2-fluoro-N-methyl-benzamide] | dissolves better | 
2 | CNC(=O)c1ccc(N2C(=S)N(c3ccc(C#N)c(C(F)(F)F)c3)C(=O)C2(C)C)cc1F [Crystalline enzalutamide, 4-(3-(4-cyano-3-(trifluoromethyl)phenyl)-5,5-dimethyl-4-oxo-2-thioxo-1-imidazolidinyl)-2-fluoro-N-methyl-benzamide] | very poorly soluble | 
3 | CNC(=O)c1ccc(N2C(=S)N(c3ccc(C#N)c(C(F)(F)F)c3)C(=O)C2(C)C)cc1F [Enzalutamide, 4-(3-(4-cyano-3-(trifluoromethyl)phenyl)-5,5-dimethyl-4-oxo-2-thioxo-1-imidazolidinyl)-2-fluoro-N-methyl-benzamide] |  | high permeability
